Results on twelve compounds are retold here after patent EP3674287A1, “COCRYSTALS OF (R)-BACLOFEN” (Zaklady Farmaceutyczne "Polpharma" S.A., priority 2018, dated 2020).

Each structure is given as a SMILES string.

A short description of series [1]: Preliminary solubility study of (R)-Baclofen in 18 solvents. In kind it is physicochemical. Particulars: for Solubility: 40 volume. As to the method:
A preliminary study of (R)-Baclofen solubility was performed using different solvents (18 solvents) in order to design a proper experimental space to obtain or detect a new crystalline form.
Solubility test were performed with 25 mg of (R)-Baclofen in a test tube with screw cap and magnetic stirring. The solvent was added in small portions of 2 volumes (mg/ml) at room temperature up to 40 volumes. After each addition, the sample was stirred for 2-5 minutes.

The conditions of series [2]: pKa of the coformer; cited from earlier work.
Series [3] in a line: Solubility of prior-art crystal forms in water (EP2345634 B1). It is filed as physicochemical. Particulars: 25°C.
A short description of series [4]: Chemical stability study under accelerated ICH storage conditions (HPLC). It is filed as physicochemical. Particulars: for Chemical stability (HPLC): 40°C/ 75 ± 5 % RH, during 0, 1, 2 and 4 weeks; for Impurity CA1 (HPLC % a/a): RRT 0.48; for Impurity CA1 (HPLC % a/a) / Impurity A+Impurity CA2 (HPLC % a/a) / Impurity A (HPLC % a/a) / Impurity SA1 (HPLC % a/a) / Impurity B + Impurity FA1 (HPLC % a/a): 40 °C / 75 ± 5 % RH; for Impurity A+Impurity CA2 (HPLC % a/a) / Impurity A (HPLC % a/a): RRT 0.7; for Impurity SA1 (HPLC % a/a): RRT 0.33; for Impurity B + Impurity FA1 (HPLC % a/a): RRT 0.3. How it is done:
Sample concentration : 5mg/5ml in ACN/H2O-0.1 methane sulfonic acid 20:80 Injection Volume: 10 µl; Run Time: 20.0 minutes; Column: […]100, 4.6x150 mm;100A,5µm; Mobile phase: gradient: ACN/H2O- 0.1 methane sulfonic acid 20:80 / ACN (95:5) -(75:25) - (95:5) Column temp.: 40°C; and Flow rate: 1 ml/min.
Samples were taken periodically (0 (start), after 1, 2, and 4 weeks) and analyzed by HPLC.
Retention time of (R)-Baclofen under conditions described in the Section "Measuring instruments, conditions and protocols" above, is about 13 min and the relative retention times (RRT) of known impurities are given below.

A short description of a further series: Coformer pKa and ΔpKa. It is filed as physicochemical. As to conditions: (R)-Baclofen versus coformer.
Series [5] can be described thus: Crystalline stability test under accelerated ICH storage conditions (XRPD). In kind it is physicochemical. How it is done: The expression "crystalline stability" means that no conversion into another crystalline form occurs, as determined by XRPD. […]
Crystalline stability study of the new cocrystals found during the screening was performed under accelerated ICH storage conditions (40°C, 75±5 % RH) for 1 week and 4 weeks. The results are summarized in the Table 16: Table 16: Crystalline stability of cocrystals

Regarding `NC[C@H](CC(=O)O)c1ccc(Cl)cc1` [(R)-Baclofen, (3R)-4-amino-3-(4-chlorophenyl)butanoic acid], the Solubility entry in series [1] (Acetone, reflux) is listed as “Insoluble”; in series [1] (Acetonitrile, reflux), “Insoluble”; in series [1] (DMF, reflux), “Soluble”; in series [1] (DMSO, reflux), “Soluble”; in series [1] (Dichloromethane, reflux), “Insoluble”; in series [1] (Dioxane, reflux), “Insoluble”. Further, the Solubility result in series [1] (Ethanol, reflux) is reported as “Insoluble”; in series [1] (Ethyl acetate, reflux) it was “Insoluble”; in series [1] (Heptane, reflux) it was “Insoluble”; in series [1] (Isobutyl acetate, reflux), “Insoluble”; in series [1] (Isopropyl alcohol, reflux), “Insoluble”; in series [1] (Methanol, reflux) it was “Insoluble”. Further, the Solubility result in series [1] (Methyl isobutyl ketone, reflux) is reported as “Insoluble”; in series [1] (THF, reflux) it was “Insoluble”; in series [1] (Tert-butyl methyl ether, reflux), “Insoluble”; in series [1] (Toluene, reflux) it was “Insoluble”; in series [1] (Water, reflux), “soluble”; in series [1] (cyclohexane, reflux), “Insoluble”. For the same compound, in series [1] (the other tested solvents (samples 4-18), even at reflux temperature), the Solubility entry is given as “insoluble”. For the same compound, the “solubility in water and majority of commonly used organic solvents” value in series [1] (overall conclusion of the solvent study) is recorded as “low solubility”.
Consider `O=C(O)/C=C/c1ccccc1` [Cinnamic acid, (2E)-3-phenylprop-2-enoic acid], for which the “Coformer [pKa]” value in series [2] is “Cinnamic acid [pKa 4.10]”.
In the case of `NC[C@H](CC(=O)O)c1ccc(Cl)cc1` [Crystal Form B, (3R)-4-amino-3-(4-chlorophenyl)butanoic acid], in series [3], the “solubility according to USP solubility test (descriptive term)” value is recorded as “sparingly soluble”.
Regarding `COc1cc(/C=C/C(=O)O)ccc1O` [Ferulic acid, (E)-3-(4-hydroxy-3-methoxy-phenyl)prop-2-enoic acid], the “Coformer [pKa]” value in series [2] is “Ferulic acid [pKa 4.26]”.
For the compound `NCC(CC(=O)O)c1ccc(Cl)cc1.O=C(O)C=Cc1ccccc1` (stereo not shown) [Form III], the “Chemical stability (HPLC)” value in series [4] is reported as “stable”. Also, the “Impurity CA1 (HPLC % a/a)” value in series [4] (week 0), in series [4] (week 1), in series [4] (week 2) and in series [4] (week 4) was 0.03 % a/a in each case. Further, the “Impurity A+Impurity CA2 (HPLC % a/a)” value in series [4] (week 0, listed as Cocrystal Form III) is recorded as 0.04 % a/a; in series [4] (week 1, listed as Cocrystal Form III), 0.04 % a/a; in series [4] (week 2, listed as Cocrystal Form III), 0.04 % a/a; in series [4] (week 4, listed as Cocrystal Form III) it was 0.04 % a/a. The same compound gave a ΔpKa in “Coformer pKa and ΔpKa” of -0.60. Also, the “Crystalline stability study 40 °C/ 75 ± 5 % RH After 1 week” value in series [5] is “Stable”. Further, the “Crystalline stability study 40 °C/ 75 ± 5 % RH After 4 weeks” value was “Stable” in series [5] and “stable” in series [5] (listed as (R)-Baclofen-cinnamic acid cocrystal Form III).
`NCC(CC(=O)O)c1ccc(Cl)cc1.NCC(CC(=O)O)c1ccc(Cl)cc1.O=C(O)c1ccccc1` (stereo not shown) [Form II]: the “Chemical stability (HPLC)” value in series [4] is “stable”. Also, the “Impurity A (HPLC % a/a)” value in series [4] (week 0), in series [4] (week 1), in series [4] (week 2) and in series [4] (week 4) was 0.02 % a/a throughout. In “Coformer pKa and ΔpKa”, this compound had a ΔpKa of -0.3. The “Crystalline stability study 40 °C/ 75 ± 5 % RH After 1 week” value in series [5] was “stable”. The “Crystalline stability study 40 °C/ 75 ± 5 % RH After 4 weeks” value in series [5] is “Stable”; in series [5] (listed as (R)-Baclofen-benzoic acid cocrystal Form II) it was “stable”.
Turning to `NCC(CC(=O)O)c1ccc(Cl)cc1.O=C(O)C=Cc1ccccc1` (stereo not shown) [Form IV], the “Impurity A+Impurity CA2 (HPLC % a/a)” value in series [4] (week 0, listed as Cocrystal Form IV) is 0.03 % a/a; in series [4] (week 1, listed as Cocrystal Form IV), 0.03 % a/a; in series [4] (week 2, listed as Cocrystal Form IV), 0.03 % a/a; in series [4] (week 4, listed as Cocrystal Form IV) it was 0.03 % a/a. Also, the “Crystalline stability study 40 °C/ 75 ± 5 % RH After 4 weeks” value in series [5] (listed as (R)-Baclofen-cinnamic acid cocrystal Form IV) is recorded as “stable”.
The compound `COc1cc(C=O)ccc1O.NCC(CC(=O)O)c1ccc(Cl)cc1.NCC(CC(=O)O)c1ccc(Cl)cc1` (stereo not shown) [Form IX] returned a ΔpKa in “Coformer pKa and ΔpKa” of -3.70. Further, in series [5], the “Crystalline stability study 40 °C/ 75 ± 5 % RH After 1 week” value is recorded as “Unstable” and the “Crystalline stability study 40 °C/ 75 ± 5 % RH After 4 weeks” value is “Unstable”.
With `NCC(CC(=O)O)c1ccc(Cl)cc1.O=C(O)c1ccccc1O` (stereo not shown) [Form VIII], in series [4], the “Chemical stability (HPLC)” value is on record as “stable”. Further, the “Impurity SA1 (HPLC % a/a)” value in series [4] (week 0), in series [4] (week 1), in series [4] (week 2) and in series [4] (week 4) was 0.05 % a/a in each case. In addition, the “Impurity A (HPLC % a/a)” value in series [4] (week 0), in series [4] (week 1), in series [4] (week 2) and in series [4] (week 4) was 0.04 % a/a each time. In “Coformer pKa and ΔpKa”, this compound yielded a ΔpKa of 0.83. Besides, the “Crystalline stability study 40 °C/ 75 ± 5 % RH After 1 week” value in series [5] is reported as “Stable”. Further, the entries for the “Crystalline stability study 40 °C/ 75 ± 5 % RH After 4 weeks” value in series [5] and in series [5] (listed as (R)-Baclofen-salicylic acid cocrystal Form VIII) were “Stable” and “stable”, respectively.
In the series “Coformer pKa and ΔpKa”, `NCC(CC(=O)O)c1ccc(Cl)cc1.NCC(CC(=O)O)c1ccc(Cl)cc1.O=C(O)C=CC(=O)O` (stereo not shown) [Form VII] displayed a ΔpKa of 0.77. In addition, in series [5], the “Crystalline stability study 40 °C/ 75 ± 5 % RH After 1 week” value is “Unstable” and the “Crystalline stability study 40 °C/ 75 ± 5 % RH After 4 weeks” value is recorded as “Unstable”.
On to `COc1cc(C=CC(=O)O)ccc1O.NCC(CC(=O)O)c1ccc(Cl)cc1` [Form XII], for which the “Chemical stability (HPLC)” value in series [4] is listed as “stable”. Further, the “Impurity A+Impurity CA2 (HPLC % a/a)” value in series [4] (Form XII table, week 0) is given as 0.05 % a/a; in series [4] (Form XII table, week 1) it was 0.04 % a/a; in series [4] (Form XII table, week 2), 0.05 % a/a; in series [4] (Form XII table, week 4), 0.05 % a/a. In addition, the “Impurity B + Impurity FA1 (HPLC % a/a)” value in series [4] (week 0) is 0.07 % a/a; in series [4] (week 1) it was 0.07 % a/a; in series [4] (week 2) it was 0.08 % a/a; in series [4] (week 4), 0.07 % a/a. In addition, the “Crystalline stability study 40 °C/ 75 ± 5 % RH After 1 week” value in series [5] is reported as “Stable”. Moreover, the “Crystalline stability study 40 °C/ 75 ± 5 % RH After 4 weeks” value in series [5] is “Stable”; in series [5] (listed as (R)-Baclofen-ferulic acid cocrystal Form XII), “stable”.
Take `COc1cc(C=O)ccc1O` [Vanillin]: the “Coformer [pKa]” value in series [2] was “Vanillin [pKa 7.5]”.
